The target of one data set is CYP3A4 (Homo sapiens, UniProt P08684). The experiment in a line: Inhibition of CYP3A4 (unknown origin) at 10 uM relative to control. In kind it is ADME.
The next data set deals with Aurora B (Homo sapiens, UniProt Q96GD4). In words: Inhibition of Aurora B (unknown origin) at 10 uM relative to control.
For the next data set, the target named is CYP2C9 (Homo sapiens, UniProt P11712). The experiment in a line: Inhibition of CYP2C9 (unknown origin) at 10 uM relative to control. In kind it is ADME.
Sequence of CYP2C9 (P11712 whole entry): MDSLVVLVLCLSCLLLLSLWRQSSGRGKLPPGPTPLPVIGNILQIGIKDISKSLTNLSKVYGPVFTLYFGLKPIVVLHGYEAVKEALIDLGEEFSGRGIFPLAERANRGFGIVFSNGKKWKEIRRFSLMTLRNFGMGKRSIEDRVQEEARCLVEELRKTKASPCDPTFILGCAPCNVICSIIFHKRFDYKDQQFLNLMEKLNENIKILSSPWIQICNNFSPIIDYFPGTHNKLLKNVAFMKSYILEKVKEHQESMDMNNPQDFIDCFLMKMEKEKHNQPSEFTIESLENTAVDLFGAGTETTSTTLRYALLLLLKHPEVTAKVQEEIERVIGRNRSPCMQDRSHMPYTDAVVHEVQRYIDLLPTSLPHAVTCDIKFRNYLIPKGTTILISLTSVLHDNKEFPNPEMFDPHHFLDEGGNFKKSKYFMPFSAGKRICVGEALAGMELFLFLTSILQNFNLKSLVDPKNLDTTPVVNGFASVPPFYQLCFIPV
The next data set deals with T1, HDAC8 (Homo sapiens, UniProt Q9BY41).
T1 sequence (Q9BY41 whole entry): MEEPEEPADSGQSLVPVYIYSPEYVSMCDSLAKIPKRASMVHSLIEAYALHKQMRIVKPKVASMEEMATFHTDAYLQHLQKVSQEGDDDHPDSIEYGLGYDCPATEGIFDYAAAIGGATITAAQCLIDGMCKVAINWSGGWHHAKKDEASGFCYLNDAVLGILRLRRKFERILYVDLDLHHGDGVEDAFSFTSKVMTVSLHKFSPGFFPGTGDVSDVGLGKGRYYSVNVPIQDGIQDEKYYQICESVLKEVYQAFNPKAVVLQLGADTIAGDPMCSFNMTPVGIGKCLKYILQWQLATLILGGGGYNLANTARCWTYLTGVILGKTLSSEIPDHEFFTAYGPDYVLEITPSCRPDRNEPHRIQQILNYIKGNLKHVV
The experiment in a line: Inhibition of HDAC8 (unknown origin) at 10 uM relative to control.

The nature of data set [1]: Cytotoxicity against human MCF7 cells assessed as cell growth inhibition at 10 uM after 48 hrs relative to control. In kind it is cell-based.
A further data set addresses HDAC9 (Homo sapiens, UniProt Q9UKV0). In words: Inhibition of HDAC9 (unknown origin) at 10 uM relative to control.
The next data set concerns the target hERG (KCNH2) (Homo sapiens, UniProt Q12809). In words: Inhibition of human ERG at 10 uM by fluorescence polarization assay relative to control. (In general: Polarisation of emitted light reports the rotation of a fluorescent probe.)
Another data set deals with T2, HDAC6 (Homo sapiens, UniProt Q9UBN7).
T2 sequence (Q9UBN7 whole entry): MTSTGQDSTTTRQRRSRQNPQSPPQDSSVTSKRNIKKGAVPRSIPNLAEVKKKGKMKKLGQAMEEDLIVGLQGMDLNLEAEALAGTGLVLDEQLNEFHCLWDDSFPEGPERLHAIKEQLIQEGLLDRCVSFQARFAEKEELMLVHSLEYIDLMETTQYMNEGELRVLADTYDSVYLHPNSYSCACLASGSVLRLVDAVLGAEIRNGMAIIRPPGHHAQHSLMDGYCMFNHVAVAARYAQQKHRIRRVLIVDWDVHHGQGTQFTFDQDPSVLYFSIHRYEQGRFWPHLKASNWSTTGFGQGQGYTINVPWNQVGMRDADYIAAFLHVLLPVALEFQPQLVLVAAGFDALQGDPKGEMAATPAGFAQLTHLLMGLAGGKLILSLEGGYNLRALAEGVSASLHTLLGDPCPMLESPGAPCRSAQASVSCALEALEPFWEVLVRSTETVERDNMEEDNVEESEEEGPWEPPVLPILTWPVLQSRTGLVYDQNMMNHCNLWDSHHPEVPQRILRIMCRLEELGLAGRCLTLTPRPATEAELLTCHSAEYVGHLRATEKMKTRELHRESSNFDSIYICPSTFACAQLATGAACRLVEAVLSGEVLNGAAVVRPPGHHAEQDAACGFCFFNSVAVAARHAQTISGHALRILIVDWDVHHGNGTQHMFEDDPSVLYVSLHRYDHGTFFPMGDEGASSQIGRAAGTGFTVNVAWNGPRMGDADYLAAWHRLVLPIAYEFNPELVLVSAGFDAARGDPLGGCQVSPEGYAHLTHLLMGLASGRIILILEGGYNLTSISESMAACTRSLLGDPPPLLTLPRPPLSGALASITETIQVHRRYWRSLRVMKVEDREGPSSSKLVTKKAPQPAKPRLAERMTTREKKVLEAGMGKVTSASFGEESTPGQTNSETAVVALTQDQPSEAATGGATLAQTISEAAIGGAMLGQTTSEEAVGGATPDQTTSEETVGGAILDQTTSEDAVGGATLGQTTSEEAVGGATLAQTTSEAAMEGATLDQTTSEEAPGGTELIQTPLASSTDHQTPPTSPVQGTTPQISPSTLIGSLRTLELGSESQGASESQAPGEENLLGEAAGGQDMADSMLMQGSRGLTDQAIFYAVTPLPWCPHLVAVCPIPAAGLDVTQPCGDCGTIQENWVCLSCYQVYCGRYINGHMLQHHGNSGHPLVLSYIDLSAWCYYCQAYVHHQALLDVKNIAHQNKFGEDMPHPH
The experiment in a line: Inhibition of HDAC6 (unknown origin) at 10 uM relative to control.

Data set [2] addresses 3',5'-cyclic-AMP phosphodiesterase 4C (Homo sapiens) (UniProt Q08493). In words: Inhibition of PDE4C1 (unknown origin) at 10 uM relative to control.
In the next data set the target is CYP2C19 (Homo sapiens, UniProt P33261). In words: Inhibition of CYP2C19 (unknown origin) at 10 uM relative to control. In kind it is ADME.
The target in the next data set is HDAC4 (Homo sapiens, UniProt P56524). In words: Inhibition of HDAC4 (unknown origin) at 10 uM relative to control.
Sequence of HDAC4 (P56524 whole entry): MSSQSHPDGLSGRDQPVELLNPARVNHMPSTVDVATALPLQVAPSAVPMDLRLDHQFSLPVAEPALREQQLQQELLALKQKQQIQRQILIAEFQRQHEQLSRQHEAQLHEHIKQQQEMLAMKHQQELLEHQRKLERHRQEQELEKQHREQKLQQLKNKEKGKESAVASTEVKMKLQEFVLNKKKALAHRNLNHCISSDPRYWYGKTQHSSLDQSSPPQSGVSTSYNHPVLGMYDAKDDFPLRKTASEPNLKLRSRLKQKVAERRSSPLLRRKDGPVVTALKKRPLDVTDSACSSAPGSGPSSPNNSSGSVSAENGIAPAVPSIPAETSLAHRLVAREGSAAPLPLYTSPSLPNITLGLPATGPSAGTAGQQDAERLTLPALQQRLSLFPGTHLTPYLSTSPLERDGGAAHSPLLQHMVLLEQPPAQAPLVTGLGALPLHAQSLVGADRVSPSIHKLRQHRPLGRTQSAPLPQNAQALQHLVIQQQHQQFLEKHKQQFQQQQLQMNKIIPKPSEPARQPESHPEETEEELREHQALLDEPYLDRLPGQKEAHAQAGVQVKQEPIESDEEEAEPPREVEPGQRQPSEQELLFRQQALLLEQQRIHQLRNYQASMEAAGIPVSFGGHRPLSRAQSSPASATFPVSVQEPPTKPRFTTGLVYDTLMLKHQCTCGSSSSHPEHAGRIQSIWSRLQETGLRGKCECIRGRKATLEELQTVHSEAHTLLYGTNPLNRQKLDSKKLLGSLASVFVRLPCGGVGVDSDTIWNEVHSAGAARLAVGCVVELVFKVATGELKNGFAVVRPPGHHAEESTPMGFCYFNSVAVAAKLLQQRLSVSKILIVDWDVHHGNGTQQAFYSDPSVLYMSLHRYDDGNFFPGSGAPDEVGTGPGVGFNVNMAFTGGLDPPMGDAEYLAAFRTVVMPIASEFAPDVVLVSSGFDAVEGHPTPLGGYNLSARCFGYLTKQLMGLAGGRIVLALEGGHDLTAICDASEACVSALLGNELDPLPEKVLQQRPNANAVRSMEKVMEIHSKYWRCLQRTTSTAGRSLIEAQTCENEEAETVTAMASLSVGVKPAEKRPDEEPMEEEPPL
The nature of data set [3]: Cytotoxicity against human U2OS cells assessed as cell growth inhibition at 10 uM after 24 hrs relative to control. In kind it is cell-based.
The nature of data set [4]: Cytotoxicity against human hTERT cells assessed as cell growth inhibition at 10 uM after 48 hrs relative to control. In kind it is cell-based, hTERT-BJ.
A short description of data set [5]: Cytotoxicity against human HEK293 cells assessed as cell growth inhibition at 10 uM after 48 hrs relative to control. In kind it is cell-based.
Data set [6] can be described thus: Cytotoxicity against human MCF7 cells assessed as cell growth inhibition at 10 uM after 24 hrs relative to control. In kind it is cell-based.
A further data set deals with T3, CYP1A2 (Homo sapiens, UniProt P05177).
T3 sequence (P05177 whole entry): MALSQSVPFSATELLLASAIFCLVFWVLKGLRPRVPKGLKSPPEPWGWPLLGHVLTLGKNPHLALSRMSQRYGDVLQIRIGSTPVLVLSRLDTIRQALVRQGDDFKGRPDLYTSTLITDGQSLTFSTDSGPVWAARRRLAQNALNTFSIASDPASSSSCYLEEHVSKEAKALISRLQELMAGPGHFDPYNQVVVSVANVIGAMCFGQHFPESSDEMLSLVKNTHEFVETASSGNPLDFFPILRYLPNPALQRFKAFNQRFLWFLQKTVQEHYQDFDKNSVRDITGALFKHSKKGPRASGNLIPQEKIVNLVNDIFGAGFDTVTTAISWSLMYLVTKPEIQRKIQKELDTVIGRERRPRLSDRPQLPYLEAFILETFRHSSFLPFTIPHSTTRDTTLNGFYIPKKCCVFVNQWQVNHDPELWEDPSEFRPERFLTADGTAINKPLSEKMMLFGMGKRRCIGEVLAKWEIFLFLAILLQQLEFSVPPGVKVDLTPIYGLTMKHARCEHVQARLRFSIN
The experiment in a line: Inhibition of CYP1A2 (unknown origin) at 10 uM relative to control. In kind it is ADME.

Sequence of CYP3A4 (P08684 whole entry): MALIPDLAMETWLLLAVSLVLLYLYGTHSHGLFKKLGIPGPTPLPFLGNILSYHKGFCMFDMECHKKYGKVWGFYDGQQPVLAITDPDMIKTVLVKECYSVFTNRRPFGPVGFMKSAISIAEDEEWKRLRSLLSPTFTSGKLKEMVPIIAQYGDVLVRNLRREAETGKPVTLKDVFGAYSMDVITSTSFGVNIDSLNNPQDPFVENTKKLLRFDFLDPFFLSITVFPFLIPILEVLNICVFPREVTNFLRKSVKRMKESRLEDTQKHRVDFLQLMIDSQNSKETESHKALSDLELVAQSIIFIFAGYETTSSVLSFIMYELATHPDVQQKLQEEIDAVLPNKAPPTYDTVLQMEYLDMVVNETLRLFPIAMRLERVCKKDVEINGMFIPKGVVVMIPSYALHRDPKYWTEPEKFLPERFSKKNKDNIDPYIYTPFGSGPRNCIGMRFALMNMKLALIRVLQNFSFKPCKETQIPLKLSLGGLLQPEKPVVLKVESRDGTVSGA
Sequence of Aurora B (Q96GD4 whole entry): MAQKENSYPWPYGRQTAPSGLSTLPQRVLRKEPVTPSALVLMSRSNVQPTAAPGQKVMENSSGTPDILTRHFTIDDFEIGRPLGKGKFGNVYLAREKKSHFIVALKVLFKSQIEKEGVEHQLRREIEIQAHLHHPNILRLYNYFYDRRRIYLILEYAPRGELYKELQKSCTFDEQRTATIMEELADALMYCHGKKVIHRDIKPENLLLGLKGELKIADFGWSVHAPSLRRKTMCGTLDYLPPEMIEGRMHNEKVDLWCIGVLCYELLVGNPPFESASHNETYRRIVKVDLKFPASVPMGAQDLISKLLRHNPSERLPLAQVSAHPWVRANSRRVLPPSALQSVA
Sequence of HDAC9 (Q9UKV0 whole entry): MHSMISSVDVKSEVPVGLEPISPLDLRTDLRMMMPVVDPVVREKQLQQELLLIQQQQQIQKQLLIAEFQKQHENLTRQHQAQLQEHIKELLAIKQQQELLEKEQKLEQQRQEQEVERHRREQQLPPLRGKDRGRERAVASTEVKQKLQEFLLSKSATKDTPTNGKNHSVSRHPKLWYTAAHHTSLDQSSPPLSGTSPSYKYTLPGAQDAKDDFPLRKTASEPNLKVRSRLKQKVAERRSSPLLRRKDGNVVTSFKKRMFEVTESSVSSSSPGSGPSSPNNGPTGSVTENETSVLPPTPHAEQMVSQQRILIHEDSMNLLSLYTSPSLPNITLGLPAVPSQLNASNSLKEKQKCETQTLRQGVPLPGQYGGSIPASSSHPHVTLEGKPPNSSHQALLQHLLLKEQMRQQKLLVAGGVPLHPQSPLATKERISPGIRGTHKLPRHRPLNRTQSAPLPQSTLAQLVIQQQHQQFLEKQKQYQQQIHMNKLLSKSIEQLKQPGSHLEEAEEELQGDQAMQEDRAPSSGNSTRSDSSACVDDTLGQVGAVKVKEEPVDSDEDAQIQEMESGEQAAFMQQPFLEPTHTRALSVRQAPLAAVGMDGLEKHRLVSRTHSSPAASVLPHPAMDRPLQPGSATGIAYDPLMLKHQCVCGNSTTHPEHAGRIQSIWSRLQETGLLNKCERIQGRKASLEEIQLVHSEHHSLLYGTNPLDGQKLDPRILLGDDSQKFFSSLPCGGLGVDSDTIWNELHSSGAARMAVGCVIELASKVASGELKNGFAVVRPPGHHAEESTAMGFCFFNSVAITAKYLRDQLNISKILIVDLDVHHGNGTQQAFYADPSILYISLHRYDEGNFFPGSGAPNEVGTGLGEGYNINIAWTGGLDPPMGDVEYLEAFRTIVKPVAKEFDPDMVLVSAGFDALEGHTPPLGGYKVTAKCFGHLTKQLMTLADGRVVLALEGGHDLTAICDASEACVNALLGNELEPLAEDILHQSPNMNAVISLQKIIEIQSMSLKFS
Sequence of hERG (KCNH2) (Q12809 whole entry): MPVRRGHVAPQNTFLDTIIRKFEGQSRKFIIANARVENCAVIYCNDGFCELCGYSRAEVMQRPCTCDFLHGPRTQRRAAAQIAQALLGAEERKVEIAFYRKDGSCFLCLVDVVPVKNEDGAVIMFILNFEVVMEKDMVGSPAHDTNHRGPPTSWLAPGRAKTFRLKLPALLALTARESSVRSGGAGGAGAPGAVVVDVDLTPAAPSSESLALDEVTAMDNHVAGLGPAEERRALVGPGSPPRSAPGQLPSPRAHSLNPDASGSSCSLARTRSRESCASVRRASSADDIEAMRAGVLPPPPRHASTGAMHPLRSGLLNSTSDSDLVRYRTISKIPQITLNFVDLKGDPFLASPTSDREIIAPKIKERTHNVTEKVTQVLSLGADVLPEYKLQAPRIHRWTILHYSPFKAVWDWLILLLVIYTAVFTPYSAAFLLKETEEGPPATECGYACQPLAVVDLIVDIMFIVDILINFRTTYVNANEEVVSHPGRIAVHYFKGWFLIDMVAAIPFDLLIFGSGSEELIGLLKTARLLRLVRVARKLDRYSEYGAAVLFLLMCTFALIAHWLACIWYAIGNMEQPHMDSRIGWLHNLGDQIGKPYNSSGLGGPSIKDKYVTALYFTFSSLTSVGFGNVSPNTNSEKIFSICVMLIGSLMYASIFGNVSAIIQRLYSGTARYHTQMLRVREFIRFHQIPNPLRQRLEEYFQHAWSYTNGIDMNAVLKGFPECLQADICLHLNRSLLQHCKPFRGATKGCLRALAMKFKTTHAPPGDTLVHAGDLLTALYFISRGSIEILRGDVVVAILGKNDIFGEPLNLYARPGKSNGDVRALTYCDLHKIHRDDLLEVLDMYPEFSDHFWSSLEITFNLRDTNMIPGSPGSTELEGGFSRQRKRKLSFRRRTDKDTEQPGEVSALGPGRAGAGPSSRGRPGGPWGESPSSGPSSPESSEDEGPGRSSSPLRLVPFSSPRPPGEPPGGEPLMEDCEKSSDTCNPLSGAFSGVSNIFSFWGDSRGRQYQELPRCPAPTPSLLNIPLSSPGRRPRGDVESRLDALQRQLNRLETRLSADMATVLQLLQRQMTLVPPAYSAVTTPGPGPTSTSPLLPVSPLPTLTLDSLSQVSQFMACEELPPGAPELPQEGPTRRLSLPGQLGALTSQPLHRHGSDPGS

As a reminder, the inhibition is the relative decrease from the control value, in per cent. With `Cc1cc(OCC(=O)O)cc(C)c1Cc1ccc(O)cc1`, the inhibition at 10 µM against CYP3A4 is under 50%; against Aurora B, under 50%; on CYP2C9 it was under 50%; against HDAC8, under 50%; against HDAC9, under 50%; at hERG (KCNH2), under 25%. Further, the inhibition at 10 µM on HDAC6, on CYP2C19, against HDAC4 and against CYP1A2 was under 50% throughout. Further, the inhibition at 48 h, 10 µM in [1], in [4] and in data set [5] was under 50% in each case. The compound also displayed an inhibition in data set [2] of under 50%. The inhibition at 24 h, 10 µM in data set [3] and in data set [6] was under 50% throughout.

Turning to `Cc1cc(OCC(=O)O)cc(C)c1Cc1ccc(N)c(C(C)C)c1`, the inhibition at 10 µM is 51% at CYP3A4; under 50% on Aurora B; under 50% at CYP2C9; under 50% against HDAC8; under 50% at HDAC9; under 40% at hERG (KCNH2). Moreover, the inhibition at 10 µM on HDAC6, on CYP2C19, against HDAC4 and on CYP1A2 was under 50% each time. Also, the inhibition at 48 h, 10 µM in data set [1], in data set [4] and in data set [5] was under 50% each time. Besides, in data set [2], the inhibition is under 50%. The inhibition at 24 h, 10 µM in data set [3] and in [6] was under 50% throughout.

For `CC(=O)Nc1ccc(Cc2c(C)cc(OCC(=O)O)cc2C)cc1C(C)C`, the inhibition at 10 µM was under 50% on CYP3A4; under 50% against Aurora B; under 50% against CYP2C9; under 50% at HDAC8; under 50% at HDAC9; under 25% at hERG (KCNH2). Besides, the inhibition at 10 µM on HDAC6, against CYP2C19, on HDAC4 and against CYP1A2 was under 50% throughout. Further, the inhibition at 48 h, 10 µM in data set [1], in data set [4] and in data set [5] was under 50% in each case. The same compound displayed an inhibition in data set [2] of under 50%. For the same compound, the inhibition at 24 h, 10 µM in data set [3] and in data set [6] was under 50% each time.
